{"source": "patent US20130323279A1", "about": "“Human Endogenous Retrovirus Polypeptide Compositions and Methods of Use Thereof” (The J. David Gladstone Institutes, priority 2006, published 2013)", "system": "PBMC", "test": "IFN-γ ELISPOT assay of T cell responses to HERV and HIV-1 peptides", "assay_type": "cell-based, Human", "conditions": "a study participant whose PBMC were used for the 51Cr release assay", "method": "HIV-1 positive volunteers were selected for this study. The study was approved by the local institutional review board and subjects were given written informed consent. Studies were performed on cryopreserved PBMC from various patient timepoints.\nELISPOT analysis was performed as previously described^34. Plates were incubated 15-18 hours at 37° C. Equivalent antigen concentrations were used for HIV and HERV peptide response comparisons. Assays were performed with duplicate wells for each condition, expect where cell recovery from archived samples dictated the use of single wells. Plates were counted with an AID ELISPOT reader (Cell Technology,). Spot totals for duplicate wells were averaged, and all spot numbers were normalized to numbers of IFN-γ spot-forming units (SFU) per 1×10^6PBMC. Spot values from media control wells were subtracted to determine responses to each peptide. Any resulting peptide values <0 following media subtraction were set to 0 for further analysis.", "data": [{"sequence": "IPVHKAHKKQ [HERV-L IQ10]", "values": [{"measurement": "response of study participant's PBMC to peptide", "value": "responded"}]}]}
